SMILES strings stand for the structures.

One assay concerns the target T1, rabbit muscle glycogen phosphorylase b (rmGPb) (Oryctolagus cuniculus, UniProt P00489).
T1 sequence (P00489 1-843): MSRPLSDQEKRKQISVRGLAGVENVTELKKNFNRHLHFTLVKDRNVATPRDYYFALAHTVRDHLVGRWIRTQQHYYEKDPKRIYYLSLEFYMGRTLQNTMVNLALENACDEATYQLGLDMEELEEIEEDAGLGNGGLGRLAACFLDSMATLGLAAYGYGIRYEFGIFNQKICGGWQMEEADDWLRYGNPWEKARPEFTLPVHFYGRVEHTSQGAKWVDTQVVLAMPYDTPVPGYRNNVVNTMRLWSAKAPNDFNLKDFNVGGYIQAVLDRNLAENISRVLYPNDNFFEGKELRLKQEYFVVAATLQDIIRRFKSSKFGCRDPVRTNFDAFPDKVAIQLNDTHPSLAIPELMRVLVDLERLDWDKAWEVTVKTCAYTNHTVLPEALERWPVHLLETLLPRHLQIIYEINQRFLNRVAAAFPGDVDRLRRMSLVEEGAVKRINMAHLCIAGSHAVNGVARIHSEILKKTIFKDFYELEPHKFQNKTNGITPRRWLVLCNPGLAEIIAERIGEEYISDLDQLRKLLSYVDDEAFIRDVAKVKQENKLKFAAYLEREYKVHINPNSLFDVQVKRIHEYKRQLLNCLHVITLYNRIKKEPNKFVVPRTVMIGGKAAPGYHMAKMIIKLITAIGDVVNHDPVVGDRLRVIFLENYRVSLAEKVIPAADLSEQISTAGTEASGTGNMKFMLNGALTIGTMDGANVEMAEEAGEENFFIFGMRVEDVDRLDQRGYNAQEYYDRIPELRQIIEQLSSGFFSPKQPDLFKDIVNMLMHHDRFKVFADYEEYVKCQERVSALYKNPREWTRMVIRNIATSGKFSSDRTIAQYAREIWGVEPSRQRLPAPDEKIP
Test: not given
To be noted: cited from earlier work.
For `O=C(N[C@@H]1O[C@H](CO)[C@@H](O)[C@H](O)[C@H]1O)c1noc(-c2ccc3ccccc3c2)n1` [VIIc], the Ki entry is listed as “no inh”.
In the case of `O=C(N[C@@H]1O[C@H](CO)[C@@H](O)[C@H](O)[C@H]1O)c1nc(-c2ccc3ccccc3c2)no1` [VIIIc], the Ki result was “no inh”.

Another assay concerns the target T1, rabbit muscle glycogen phosphorylase b (rmGPb). Kind of assay: Kinetics of rabbit muscle GPb inhibition, assayed in the direction of glycogen synthesis. To be noted: 10 μg/mL enzyme, glucose-1-phosphate 4–40 mM, 1% glycogen, 1 mM AMP, at least three independent experiments, ± SD, read-out: Inhibition constant (Ki). In kind it is biochemical. The method, then: Inhibitory constants (Ki) were determined for rabbit muscle glycogen phosphorylase. Enzyme activity was assayed in the direction of glycogen synthesis, as previously published. The experiments were performed using the rabbit muscle phosphorylase b (dephosphorylated, GPb) isoform. Kinetic data for the inhibition of GPb by the compounds were obtained in the presence of 10 μg/mL of the enzyme, varying the concentrations of α-D-glucose-1-phosphate (4–40 mM) and using constant concentrations (1%) of glycogen and AMP (1 mM). The enzymatic activities were presented in the form of a double reciprocal plot (Lineweaver–Burk). The plots were analysed using a non-linear data analysis program. The inhibitor constants (Ki) were determined using secondary plots, replotting the slopes from the Lineweaver–Burk plot against the inhibitor concentrations. The means of the standard errors for all calculated kinetic parameters averaged to less than 10% [40].
In the case of `O=C(N[C@@H]1O[C@H](CO)[C@@H](O)[C@H](O)[C@H]1O)c1cnc(-c2ccccc2)[nH]1` [Compound 1a, N-(β-D-Glucopyranosyl)-2-phenyl-1H-imidazole-4(5)-carboxamide], the Ki was found to be 10.4 ± 6.2 µM.
Same read-out and setting: the figure for `O=C(N[C@@H]1O[C@H](CO)[C@@H](O)[C@H](O)[C@H]1O)c1cnc(-c2ccc3ccccc3c2)[nH]1` [Compound 1c, N-(β-D-Glucopyranosyl)-2-(2-naphthyl)-1H-imidazole-4(5)-carboxamide] is 12.8 ± 3 µM; for `O=C(N[C@@H]1O[C@H](CO)[C@@H](O)[C@H](O)[C@H]1O)c1ncc(-c2ccccc2)[nH]1` [Compound 2a, N-(β-D-Glucopyranosyl)-4(5)-phenyl-1H-imidazole-2-carboxamide] it is 67.4 ± 9.7 µM.
With `O=C(N[C@@H]1O[C@H](CO)[C@@H](O)[C@H](O)[C@H]1O)c1ncc(-c2cccc3ccccc23)[nH]1` [Compound 2b, N-(β-D-Glucopyranosyl)-4(5)-(1-naphthyl)-1H-imidazole-2-carboxamide], the Ki was determined as 4.1 ± 0.8 µM.
Same read-out and setting: the figure for `O=C(N[C@@H]1O[C@H](CO)[C@@H](O)[C@H](O)[C@H]1O)c1cnc(-c2cccc3ccccc23)[nH]1` [Compound 1b, N-(β-D-Glucopyranosyl)-2-(1-naphthyl)-1H-imidazole-4(5)-carboxamide] is 16.2 ± 8.1 µM; for `O=C(N[C@@H]1O[C@H](CO)[C@@H](O)[C@H](O)[C@H]1O)c1ncc(-c2ccc3ccccc3c2)[nH]1` [Compound 2c, N-(β-D-Glucopyranosyl)-4(5)-(2-naphthyl)-1H-imidazole-2-carboxamide] it is 3.3 ± 0.1 µM.

A word on the Ki: it is a dissociation constant, usually derived from enzyme kinetics or from competition with a known ligand.

The record behind these values is article PMC11083775, “Synthesis, In Silico and Kinetics Evaluation of N-(β-D-glucopyranosyl)-2-arylimidazole-4(5)-carboxamides and N-(β-D-glucopyranosyl)-4(5)-arylimidazole-2-carboxamides as Glycogen Phosphorylase Inhibitors” (International Journal of Molecular Sciences, 2024).
